Here are results for two molecules from PMC12656566, “Toxicokinetic Characterization of MDM Hydantoin via Stable Metabolite DMH: Population Modeling for Predicting Dermal Formaldehyde Formation” (Toxics, 2025).

Data set [1] in a line: Toxicokinetics after intravenous injection of MDMH or DMH (plasma, LC-MS/MS, non-compartmental analysis). The data set is classed as in vivo. The note with it: rats; for half-life / clearance / Vd / AUC(0-t) / C0 / AUC(0-inf): male, Sprague-Dawley, rat; for half-life / clearance / Vd: plasma; for half-life: iv; for Vd: read-out: Vz; for AUC(0-inf): read-out: AUCinfinity. The method, then:
(§1) An API 4000 LC-MS/MS system (Applied Biosystems/MDS Sciex, Foster City, CA, USA) coupled with an Agilent 1100 HPLC (Agilent Technologies, Santa Clara, CA, USA) was used for determination of MDMH and DMH in rat plasma. The analytes were separated on a Synergi Fusion-RP 80 Å (150 × 2.0 mm, i.d., 4 µm;) with a Security Guard™ Cartridge AJ0-7556 (Phenomenex, Torrance, CA, USA), and the column oven temperature was maintained at 30 °C. An isocratic solvent system of distilled water and methanol (80:20, v/v) was used with a runtime of 7 min. The injection volume was 10 µL, and the flow rate was maintained at 0.2 mL/min.
(§2) For plasma sample preparation, formic acid was immediately added to blood samples upon collection to achieve a final concentration of 0.5% to prevent potential enzymatic degradation of MDMH, and all sample preparation procedures were conducted at ≤4 °C to minimize temperature-dependent decomposition of the analytes. For analysis, 50 μL of internal standard solution and 100 μL of methanol containing 0.5% formic acid (as precipitating solvent) were added to 50 μL of plasma, followed by vortex-mixing for 2 min. After centrifugation at 21,206× g for 10 min, 40 μL of supernatant was mixed with 160 μL of 0.5% formic acid in distilled water, and 10 μL was injected into the LC-MS/MS system.
(§3) All animal care and experiments were conducted to evaluate the toxicokinetics of MDMH and DMH according to the Guidelines for the Care and Use of Animal approved by the Ethics Committee for Treatment of Laboratory Animal at Daegu Catholic University (CUD-2019-020). To evaluate the toxicokinetics of MDMH and DMH in rats after intravenous injection (IV) or transdermal application (TD). Male Sprague-Dawley rats (9 weeks, body weight 260–310 g) (Hyochang Science Co., Daegu, Republic of Korea) were kept in plastic cages and fed regularly with water and feed. Rats were acclimated for a minimum of 1 week prior to the experiment under conditions keeping a 12 h light-dark cycle, a temperature of 23 ± 2 °C, and a relative humidity of 50 ± 10%. The rats were cannulated using polyethylene tubing (0.58 mm i.d., 0.96 mm o.d., Natsume, Tokyo, Japan) in the jugular vein after intraperitoneal injection at a dose of 0.9 mL/kg of Zoletil 50 (Virbac, Carros, France).
For IV injection, MDMH or DMH was dissolved in distilled water, respectively, and the dose was 50 or 10 mg/kg, respectively. Blood samples were collected via the jugular vein in the MDMH administration group at 0, 0.5, 1, 1.5, 2, 2.5, 3, 5, 10, and 15 min and 1, 2, 4, 8, 12, and 24 h (16 points/head), and in the DMH administration group at 0, 2, 5, 10, 15, 30 min and 1, 2, 4, 8, 12, and 24 h (12 points/head). Plasma samples were harvested by centrifugation of obtained blood for 10 min at 4000× g, and stored at −20 °C until analysis.
The toxicokinetic parameters were calculated by standard non-compartmental analysis using the non-linear least squares regression program Phoenix™ WinNonlin® 6.1 (Pharsight, Cary, NC, USA).
The non-compartmental toxicokinetic parameters included terminal half-life (t1/2), area under the plasma concentration versus time curve from time zero to the last observation time point (AUClast) and to infinity (AUCinfinity), volume of distribution (Vz), and systemic clearance (CL). The maximum plasma concentration (Cmax) and the time to reach Cmax (Tmax) were obtained directly from the observed data. Absolute bioavailability (F) was estimated as the ratio of the dose-normalized AUCinfinity of MDMH and DMH following TD application compared to IV injection. The fraction metabolized (Fm) was calculated as the ratio of metabolite AUC to parent AUC after correction for molecular weight differences, accounting for the stoichiometric conversion relationship:(1) Fm=AUCDMH·MWMDMH/AUCMDMH·MWDMH where MWMDMH = 158.16 g/mol and MWDMH = 128.13 g/mol. […]

Data set [2] is described as follows: Toxicokinetics after transdermal application of gel containing 2% MDMH or DMH (plasma, non-compartmental analysis). The data set is classed as in vivo. The note with it: rats; for bioavailability: plasma, DMH, TD application of 2% DMH gel (10.7 mg/kg) vs IV, read-out: Absolute bioavailability. The method, then:
as §1, §2, §3
The transdermal application study was performed according to the “Organization for Economic Cooperation and Development guidelines for the in vivo skin absorption test”. Rats were anesthetized using inhaled isoflurane, and the back area of 6 × 6 cm^2 was removed using an electric clipper (808, Daito Electric Co., Osaka, Japan) 12 h before administration. The clipped skin of the rat was wiped with acetone without damaging the stratum corneum, and a resting period was allowed just before the study.
For TD application, a gel corresponding to approximately 5 mg/cm^2 was applied to an area of 5 × 5 cm^2 among the depilated areas. The doses of MDMH and DMH for the transdermal application study were 10.9 and 10.7 mg/kg on average, respectively. Although the regulatory limit for MDMH in cosmetics is 0.2%, a higher concentration (2%) was employed to ensure adequate systemic exposure and plasma concentrations suitable for accurate toxicokinetic characterization of these rapidly metabolized compounds. To prevent loss of the compounds due to volatilization and grooming, the application on the back site was adhered with gauze and pads. Blood samples were collected via the jugular vein in the MDMH application group at 0, 30 min, and 1, 2, 3, 4, 5, 6, 7, 8, 10, 12, and 24 h (13 points/head), and in the DMH application group at 0, 30 min, and 1, 2, 3, 4, 6, 8, 10, 12, and 24 h (11 points/head). Plasma samples were harvested by centrifugation of obtained blood for 10 min at 4000× g, and stored at −20 °C until analysis.
The toxicokinetic parameters were calculated by standard non-compartmental analysis using the non-linear least squares regression program Phoenix™ WinNonlin® 6.1 (Pharsight, Cary, NC, USA). […]

Setting [3] is: DMH in plasma after IV injection of DMH 10 mg/kg, n = 5.
Setting [4] is: DMH after IV injection of DMH 10 mg/kg, n = 5.
The mark [5] stands for this setting: male, Sprague-Dawley, rat, topical or ocular, DMH in plasma after TD application of gel containing 2% DMH (10.7 mg/kg), n = 5.
[6] abbreviates: MDMH after IV injection of MDMH 50 mg/kg, n = 5.
Where [7] appears, read: MDMH in plasma after IV injection of MDMH 50 mg/kg, n = 5.

Where “and” joins values, the source holds several entries; their conditions need not be identical. Identical values can stand only once. Entries after “also recorded” stand apart in the source; their conditions may differ. Like-named read-outs stand apart in the source and are kept apart here.

Consider `CC1(C)NC(=O)NC1=O` [DMH, 5,5-dimethylhydantoin], for which the “duration of initial distribution phase (alpha phase)” value in data set [1] (DMH after direct intravenous administration of DMH) is recorded as “approximately 30 min”. For the same molecule, in data set [1] (setting [3]), the t1/2 came out at 3.0212 ± 0.5513 h; the AUC(0-t) (as a rule, exposure summed from dosing to a finite time, without extrapolation to infinity) was 47100 ± 29900 ng·h/mL; the C0 stood at 26900 ± 18300 ng/mL; the AUC(0-inf) stood at 55000 ± 36800 ng·h/mL. The half-life in data set [1] (10 mg/kg, DMH after IV injection of DMH 10 mg/kg, read-out: t1/2 (hour equivalent)) worked out at 3.02 h. The half-life in data set [1] (10 mg/kg, DMH in plasma after IV injection of DMH 10 mg/kg, n = 5, read-out: t1/2) was determined as 3.02 ± 0.55 h. In addition, in data set [1] (setting [4]), the clearance (in general, a measure of how efficiently the substance is removed, as volume per time) was 4 mL/min/kg and the Vd was determined as 1 ± 0.47 L/kg. Moreover, the bioavailability in data set [2] (male, Sprague-Dawley, rat, topical or ocular, n = 5) was determined as 101 ± 18%. The bioavailability in data set [2] (male, Sprague-Dawley, rat, topical, n = 5) worked out at 101 ± 18%. For the same molecule, in data set [2] (setting [5]), the AUC(0-t) is 40510 ± 50 ng·h/mL; the Cmax (commonly the peak of the concentration-time curve) was 6460 ± 1690 ng/mL; the Tmax (as a rule, the time from dosing to the highest level) stood at 2 ± 1.73 h; the half-life is 5.36 ± 2.18 h. Moreover, the AUC(0-inf) in data set [2] (male, Sprague-Dawley, rat, topical or ocular, DMH in plasma after TD application of gel containing 2% DMH (10.7 mg/kg), n = 5, read-out: AUCinfinity) is 51500 ± 5530 ng·h/mL.
For `CC1(C)C(=O)NC(=O)N1CO` [MDMH, 1-(Hydroxymethyl)-5,5-dimethylhydantoin], the “Fm to DMH (fraction of MDMH metabolized to DMH)” value in data set [1] (IV injection of MDMH 50 mg/kg, AUC ratio adjusted for molecular weight) is 97.6 ± 9.6% and 97.59 ± 9.64%. Besides, the “time until parent compound plasma concentrations reached below the quantification limit” value in data set [1] (MDMH after i.v. injection of MDMH) is listed as ≤ 5 min. Moreover, the half-life in data set [1] (50 mg/kg, MDMH after IV injection of MDMH 50 mg/kg, read-out: t1/2 (hour equivalent)) worked out at 0.007 h. Moreover, in data set [1] (50 mg/kg, MDMH in plasma after IV injection of MDMH 50 mg/kg, n = 5, mean ± S.D., read-out: t1/2), the half-life was 0.00667 ± 0.00167 h. In data set [1] (setting [6]), the clearance was 1570 mL/min/kg and the Vd amounted to 0.84 ± 0.04 L/kg. For the same molecule, in data set [1] (setting [7]), the AUC(0-t) was found to be 570 ± 190 ng·h/mL, the C0 amounted to 77900 ± 28000 ng/mL and the AUC(0-inf) was determined as 580 ± 180 ng·h/mL. In addition, the “parent compound plasma concentrations after transdermal application” value in data set [2] (MDMH in plasma after MDMH gel TD application, throughout the sampling period) is on record as “below the quantification limit; also recorded: below quantification limits”. Moreover, in data set [2] (ratio of DMH exposure after MDMH gel TD (10.9 mg/kg) to that after DMH gel TD), the “Fm to DMH (fraction metabolized)” value came out at 89.78 ± 24.15%.
